The text below walks through data of US12540128B2, “Substituted pyridazinones as herbicides” (SYNGENTA CROP PROTECTION AG, priority 2019, dated 2026).

Holding throughout (format): in vivo
Holding throughout (conditions): 250 g/ha, after 13 days

Test [1] relates to Setaria faberi (SETFA). The test can be described thus: B3 Pre-Emergence Efficacy Test 1. As for the experimental part: (§1) Seeds of a variety of test species were sown in standard soil in pots: Solanum nigrum (SOLNI), Amaranthus retoflexus (AMARE), Setaria faberi (SETFA), Echinochloa crus-galli (ECHCG), Ipomoea hederacea (IPOHE), Lolium perenne (LOLPE). After cultivation for one day (pre-emergence) under controlled conditions in a glasshouse (at 24/16° C., day/night; 14 hours light; 65% humidity), the plants were sprayed with an aqueous spray solution derived from the formulation of the technical active ingredient in acetone/water (50:50) solution containing 0.5% Tween 20 (polyoxyethelyene sorbitan monolaurate, CAS RN 9005-64-5). Compounds are applied at 250 g/ha. The test plants were then grown in a glasshouse under controlled conditions (at 24/16° C., day/night; 14 hours light; 65% humidity) and watered twice daily. After 13 days, the test is evaluated for the percentage damage caused to the plant. The biological activities are assessed on a five point scale (5=80-100%; 4=60-79%; 3=40-59%; 2=20-39%; 1=0-19%). A blank value in the table is indicative that the compound was not tested on that species.

Test [2] has as its system Amaranthus retoflexus (AMARE). The test can be described thus: B3 Pre-Emergence Efficacy Test 1. As for the experimental part: as §1
For test [3], the system named is Solanum nigrum (SOLNI). As to the kind of experiment: B3 Pre-Emergence Efficacy Test 1. The procedure: as §1
Test [4] concerns Echinochloa crus-galli (ECHCG). The test can be described thus: B3 Pre-Emergence Efficacy Test 1. The procedure:
as §1

Test [5] has as its system Lolium perenne (LOLPE). As to the kind of experiment: B3 Pre-Emergence Efficacy Test 1. The procedure: as §1
The subject of test [6] is Ipomoea hederacea (IPOHE). The test can be described thus: B3 Pre-Emergence Efficacy Test 1. As for the experimental part:
as §1

Test [7] has as its system Setaria faberi (SETFA). As to the kind of experiment: B1 Post-Emergence Efficacy Test 1. As for the experimental part: (§2) Seeds of a variety of test species are sown in standard soil in pots:— Solanum nigrum (SOLNI), Amaranthus retoflexus (AMARE), Setaria faberi (SETFA), Echinochloa crus-galli (ECHCG), Ipomoea hederacea (IPOHE), Lolium perenne (LOLPE). After 8 days cultivation (post-emergence) under controlled conditions in a glasshouse (at 24/16° C., day/night; 14 hours light; 65% humidity), the plants are sprayed with an aqueous spray solution derived from the formulation of the technical active ingredient in acetone/water (50:50) solution containing 0.5% Tween 20 (polyoxyethylene sorbitan monolaurate, CAS RN 9005-64-5). Compounds are applied at 250 g/ha. The test plants are then grown in a glasshouse under controlled conditions in a glasshouse (at 24/16° C., day/night; 14 hours light; 65% humidity) and watered twice daily. After 13 days, the test is evaluated for the percentage damage caused to the plant. The biological activities are assessed on a five point scale (5=80-100%; 4=60-79%; 3=40-59%; 2=20-39%; 1=0-19%). A blank value in the table is indicative that the compound was not tested on that species.

Test [8] deals with Amaranthus retoflexus (AMARE). As to the kind of experiment: B1 Post-Emergence Efficacy Test 1. The procedure:
as §2

Test [9] has as its system Solanum nigrum (SOLNI). The test can be described thus: B1 Post-Emergence Efficacy Test 1. The procedure:
as §2

The test system of test [10] is Echinochloa crus-galli (ECHCG). The test can be described thus: B1 Post-Emergence Efficacy Test 1. The procedure: as §2
The subject of test [11] is Lolium perenne (LOLPE). As to the kind of experiment: B1 Post-Emergence Efficacy Test 1. The procedure:
as §2

Test [12] has as its system Ipomoea hederacea (IPOHE). As to the kind of experiment: B1 Post-Emergence Efficacy Test 1. As for the experimental part: as §2

As for `CCc1nc2ccc(CCc3c(Cl)ccc(F)c3-c3c(O)c(C)nn(C)c3=O)cc2o1` [Compound 1.028], the “percentage damage caused to the plant, five point scale, SETFA” value (shortened to “percentage damage caused … SETFA”) in [1] and in test [7] was 5 (5=80-100%) throughout. For the same molecule, the “percentage damage caused to the plant, five point scale, AMARE” value (“percentage damage caused … AMARE” below) in test [2] and in test [8] was 5 (5=80-100%) each time. Moreover, the “percentage damage caused to the plant, five point scale, SOLNI” value (from here on “percentage damage caused … SOLNI”) in test [3] and in [9] was 5 (5=80-100%) in each case. Also, the entries for the “percentage damage caused to the plant, five point scale, ECHCG” value (shortened to “percentage damage caused … ECHCG”) in test [4] and in test [10] were 1 (1=0-19%) and 5 (5=80-100%), respectively. Moreover, the “percentage damage caused to the plant, five point scale, LOLPE” value (“percentage damage caused … LOLPE” below) in [5] and in test [11] was 5 (5=80-100%) each time. Besides, the “percentage damage caused to the plant, five point scale, IPOHE” value (from here on “percentage damage caused … IPOHE”) in test [6] and in [12] was 5 (5=80-100%) throughout.

Take `Cc1nn(C)c(=O)c(-c2c(F)ccc(Cl)c2CCc2ccnc3ccccc23)c1O` [Compound 1.036]: the “percentage damage caused … SETFA” value in [1] and in test [7] was 5 (5=80-100%) throughout. Besides, the “percentage damage caused … AMARE” value in test [2] and in test [8] was 5 (5=80-100%) each time. The “percentage damage caused … SOLNI” value in [3] and in [9] was 5 (5=80-100%) throughout. The “percentage damage caused … ECHCG” value in test [4] and in test [10] was 5 (5=80-100%) each time. The “percentage damage caused … LOLPE” value in test [5] and in test [11] was 5 (5=80-100%) throughout. In addition, the “percentage damage caused … IPOHE” value in [6] and in [12] was 5 (5=80-100%) each time.

Consider `Cc1nn(C)c(=O)c(-c2c(F)ccc(Cl)c2CCc2ccc3c(c2)CCC(C)N3)c1OC(=O)C(C)C` (stereo not drawn) [Compound 3.030, [5-[3-chloro-6-fluoro-2-[2-(2-methyl-1,2,3,4-tetrahydroquinolin-6-yl)ethyl]phenyl]-1,3-dimethyl-6-oxo-pyridazin-4-yl] 2-methylpropanoate], for which the “percentage damage caused … SETFA” value in test [1] and in test [7] was 5 (5=80-100%) each time. Further, the “percentage damage caused … AMARE” value in [2] and in test [8] was 5 (5=80-100%) throughout. For the same molecule, the “percentage damage caused … SOLNI” value in [3] and in test [9] was 5 (5=80-100%) in each case. The “percentage damage caused … ECHCG” value in [4] and in test [10] was 5 (5=80-100%) throughout. In addition, the “percentage damage caused … LOLPE” value in test [5] and in test [11] was 5 (5=80-100%) each time. The “percentage damage caused … IPOHE” value in [6] and in [12] was 5 (5=80-100%) throughout.

As for `Cc1ccc2cc(CCc3c(Cl)ccc(F)c3-c3c(OC(=O)C(C)C)c(C)nn(C)c3=O)ccc2n1` [Compound 3.034, [5-[3-chloro-6-fluoro-2-[2-(2-methyl-6-quinolyl)ethyl]phenyl]-1,3-dimethyl-6-oxo-pyridazin-4-yl] 2-methylpropanoate], the “percentage damage caused … SETFA” value in [1] and in test [7] was 5 (5=80-100%) throughout. Also, the “percentage damage caused … AMARE” value in [2] is on record as 5 (5=80-100%); in [8] it was 4 (4=60-79%). In addition, the “percentage damage caused … SOLNI” value in [3] and in test [9] was 5 (5=80-100%) in each case. In addition, the “percentage damage caused … ECHCG” value in test [4] is 5 (5=80-100%); in test [10], 4 (4=60-79%). Moreover, the “percentage damage caused … LOLPE” value in test [5] and in [11] was 5 (5=80-100%) throughout. In addition, the figures for the “percentage damage caused … IPOHE” value in test [6] and in [12] were 2 (2=20-39%) and 4 (4=60-79%), respectively.

Take `Cc1nn(C)c(=O)c(-c2c(F)ccc(Cl)c2/C=C/c2ccc3c(c2)OC(F)(F)O3)c1OC(=O)C(C)C` [Compound 4.342]: the “percentage damage caused … SETFA” value in test [1] is listed as 0; in test [7], 1 (1=0-19%). Moreover, the entries for the “percentage damage caused … AMARE” value in test [2] and in test [8] were 1 (1=0-19%) and 0, respectively. Besides, the entries for the “percentage damage caused … SOLNI” value in [3] and in [9] were 3 (3=40-59%) and 4 (4=60-79%), respectively. The “percentage damage caused … ECHCG” value in test [4] is listed as 0; in test [10], 1 (1=0-19%). Also, the “percentage damage caused … LOLPE” value in [5] is listed as 0; in [11], 2 (2=20-39%). Moreover, the “percentage damage caused … IPOHE” value in test [6] was 1 (1=0-19%); in test [12], 3 (3=40-59%).
